The values below come from patent US20230096766A1, “AMINO ACID HAVING FUNCTIONAL GROUP CAPABLE OF INTERMOLECULAR HYDROGEN BONDING, PEPTIDE COMPOUND CONTAINING SAME AND METHOD FOR PRODUCTION THEREOF” (Chugai Seiyaku Kabushiki Kaisha, priority 2018, published 2023).

The structures appear in SMILES notation. *1 amine or outer side, *2 acyl side, *3 side chain or, on linkers, in order; H or OH if unused. Where a SMILES comes first, the peptide text is derived from it. Bridges are numbered along the chain shown (N, C = ends). [ ]: non-standard residue; d: D form. The star is where a group is joined. ξ: configuration not given here. X19 = CC(C)C[C@H](NN(C)[C@H](Cc1ccccc1)N(C)[*:1])C(=O)[*:2]; X12 = O=C([C@H](CCCC(O)C(F)(F)F)N[*:1])[*:2]; Tyr(3-OMe) = COc1cc(C[C@H](N)C(=O)O)ccc1O; NMeF = CN[C@@H](Cc1ccccc1)C(=O)O; NMeGABA = CN(CCCC(=O)[*:2])[*:1]; NMeξIle = CC[C@H](C)C(NC)C(=O)O; NMeL = CN[C@@H](CC(C)C)C(=O)O; NMeV = CN[C@H](C(=O)O)C(C)C; NMeAbu = CC[C@H](NC)C(=O)O; NMeA = CN[C@@H](C)C(=O)O; Piperidide = C1CCN(*)CC1; NBuGly = CCCCNCC(=O)O; ξV = CC(C)C(N)C(=O)O; Sar = CNCC(=O)O; tBu = CC(C)(C)*

One series is described as follows: in vitro. To be noted: human, Caco-2, Caco-2 (cm/sec).
`COc1cc(C[C@@H]2NC(=O)[C@H](CC(C)C)N(C)C(=O)CN(C)C(=O)[C@H]([C@@H](C)O)NC(=O)[C@H](CC(C)C)N(C)C(=O)[C@H](CC(C)C)NN(C)[C@H](Cc3ccccc3)N(C)C(=O)[C@@H](C(C)C)NC(=O)C[C@@H](C(=O)N3CCCCC3)NC(=O)[C@H](CC(C)C)N(C)C(=O)[C@H](CC(C)C)N(C)C2=O)ccc1O` [Compound E01] ([dV][X19][NMeL]T[Sar][NMeL][Tyr(3-OMe)][NMeL][NMeL]D-Piperidide; lactam N-10) returned a Papp of 1.1 ×10⁻⁶ cm/s.

In turn, `CCCCN1CC(=O)N(C)[C@@H](CC(C)C)C(=O)N[C@@H](COC(C)(C)C)C(=O)N(C)[C@@H](CC(C)C)C(=O)N(C)[C@@H](CC)C(=O)N[C@H](C(=O)N2CCCCC2)CC(=O)N[C@H](CC(C)C)C(=O)N(C)[C@@H](Cc2ccccc2)C(=O)N[C@@H](Cc2ccc(O)c(OC)c2)C(=O)N(C)[C@@H](CC(C)C)C(=O)N[C@@H]([C@@H](C)O)C1=O` [Compound E02] ([dL][NMeF][Tyr(3-OMe)][NMeL]T[NBuGly][NMeL]S(tBu)[NMeL][NMeAbu]D-Piperidide; lactam N-11) displayed a Papp of 0.31 ×10⁻⁶ cm/s.

The compound `CC[C@H](C)[C@@H]1NC(=O)[C@H](CC(C)C)N(C)C(=O)CCCN(C)C(=O)C[C@@H](C(=O)N2CCCCC2)NC(=O)[C@H](CC(C)C)N(C)C(=O)[C@H](CC(C)C)N(C)C(=O)[C@H]([C@@H](C)O)NC(=O)[C@H](CC(C)C)N(C)C(=O)[C@H](Cc2ccc(O)c(OC)c2)NC(=O)[C@H](CC(C)C)N(C)C(=O)[C@H](Cc2ccccc2)N(C)C1=O` [Compound E03] ([NMeGABA][NMeL]I[NMeF][NMeL][Tyr(3-OMe)][NMeL]T[NMeL][NMeL]D-Piperidide; lactam N-11) registered a Papp of 0.18 ×10⁻⁶ cm/s.

On to `COc1cc(C[C@@H]2NC(=O)[C@H](CC(C)C)N(C)C(=O)CCCN(C)C(=O)C[C@@H](C(=O)N3CCCCC3)NC(=O)[C@H](CC(C)C)N(C)C(=O)[C@H](CC(C)C)N(C)C(=O)[C@H]([C@@H](C)O)NC(=O)[C@H](CC(C)C)N(C)C(=O)[C@H](COC(C)(C)C)NC(=O)[C@H](Cc3ccccc3)N(C)C(=O)[C@H](CC(C)C)N(C)C2=O)ccc1O` [Compound E04] ([NMeGABA][NMeL][Tyr(3-OMe)][NMeL][NMeF]S(tBu)[NMeL]T[NMeL][NMeL]D-Piperidide; lactam N-11), for which the Papp turned out to be 0.4 ×10⁻⁶ cm/s.

`CC[C@H]1C(=O)N[C@@H](CC(C)C)C(=O)N(C)[C@@H](CC(C)C)C(=O)N(C)[C@@H](Cc2ccccc2)C(=O)N[C@@H](Cc2ccc(O)c(OC)c2)C(=O)N(C)[C@@H](CC(C)C)C(=O)N(C)[C@@H](CC(C)C)C(=O)N[C@@H]([C@@H](C)O)C(=O)N(C)CC(=O)N(C)[C@@H](CC(C)C)C(=O)N[C@H](C(=O)N2CCCCC2)CC(=O)N1C` [Compound E05] ([NMeAbu]L[NMeL][NMeF][Tyr(3-OMe)][NMeL][NMeL]T[Sar][NMeL]D-Piperidide; lactam N-11) came in with a Papp of 1.8 ×10⁻⁶ cm/s.

`CC[C@H]1C(=O)N[C@@H](Cc2ccc(O)c(OC)c2)C(=O)N(C)[C@@H](CC(C)C)C(=O)N(C)[C@@H](CC(C)C)C(=O)N[C@@H](C(C)C)C(=O)N(C)[C@@H](Cc2ccccc2)C(=O)N(C)[C@@H](CC(C)C)C(=O)N[C@@H]([C@@H](C)O)C(=O)N(C)CC(=O)N(C)[C@@H](CC(C)C)C(=O)N[C@H](C(=O)N2CCCCC2)CC(=O)N1C` [Compound E06] ([NMeAbu][Tyr(3-OMe)][NMeL][NMeL]V[NMeF][NMeL]T[Sar][NMeL]D-Piperidide; lactam N-11): the Papp worked out at 0.97 ×10⁻⁶ cm/s.

`CCCCN1CC(=O)N(C)[C@@H](Cc2ccccc2)C(=O)N(C)[C@@H](CC(C)C)C(=O)N[C@@H](CC(C)C)C(=O)N(C)[C@@H](CC(C)C)C(=O)N[C@H](C(=O)N2CCCCC2)CC(=O)N(C)CC(=O)N(C)[C@@H](CC(C)C)C(=O)N[C@@H](Cc2ccc(O)c(OC)c2)C(=O)N(C)[C@@H](CC)C(=O)N[C@@H]([C@@H](C)O)C1=O` [Compound E07] ([Sar][NMeL][Tyr(3-OMe)][NMeAbu]T[NBuGly][NMeF][NMeL]L[NMeL]D-Piperidide; lactam N-11): the Papp turned out to be 1.1 ×10⁻⁶ cm/s.

`CCCCN1CC(=O)N(C)[C@@H](Cc2ccccc2)C(=O)N(C)[C@@H](CC(C)C)C(=O)N[C@@H](Cc2ccc(O)c(OC)c2)C(=O)N(C)[C@@H](CC(C)C)C(=O)N[C@H](C(=O)N2CCCCC2)CC(=O)N(C)CC(=O)N(C)[C@@H](CC(C)C)C(=O)N[C@@H]([C@@H](C)CC)C(=O)N(C)[C@@H](CC(C)C)C(=O)N[C@@H]([C@@H](C)O)C1=O` [Compound E08] ([Sar][NMeL]I[NMeL]T[NBuGly][NMeF][NMeL][Tyr(3-OMe)][NMeL]D-Piperidide; lactam N-11) yielded a Papp of 0.12 ×10⁻⁶ cm/s.

The compound `CC(C)C[C@@H]1NN(C)[C@H](Cc2ccccc2)N(C)C(=O)[C@@H](C(C)C)NC(=O)C[C@@H](C(=O)N2CCCCC2)NC(=O)[C@H](CC(C)C)N(C)C(=O)[C@H](CC(C)C)N(C)C(=O)[C@H](Cc2ccc(O)cc2)NC(=O)[C@H](CC(C)C)N(C)C(=O)CN(C)C(=O)[C@H]([C@@H](C)O)NC(=O)[C@H](CC(C)C)N(C)C1=O` [Compound F01] ([dV][X19][NMeL]T[Sar][NMeL]Y[NMeL][NMeL]D-Piperidide; lactam N-10) yielded a Papp of 0.32 ×10⁻⁶ cm/s.

`CCCCN1CC(=O)N(C)[C@@H](CC(C)C)C(=O)N[C@@H](COC(C)(C)C)C(=O)N(C)[C@@H](CC(C)C)C(=O)N(C)[C@@H](CC)C(=O)N[C@H](C(=O)N2CCCCC2)CC(=O)N[C@H](CC(C)C)C(=O)N(C)[C@@H](Cc2ccccc2)C(=O)N[C@@H](Cc2ccc(O)cc2)C(=O)N(C)[C@@H](CC(C)C)C(=O)N[C@@H]([C@@H](C)O)C1=O` [Compound F02] ([dL][NMeF]Y[NMeL]T[NBuGly][NMeL]S(tBu)[NMeL][NMeAbu]D-Piperidide; lactam N-11) had a Papp of 0.04 ×10⁻⁶ cm/s.

For `CC[C@H](C)[C@@H]1NC(=O)[C@H](CC(C)C)N(C)C(=O)CCCN(C)C(=O)C[C@@H](C(=O)N2CCCCC2)NC(=O)[C@H](CC(C)C)N(C)C(=O)[C@H](CC(C)C)N(C)C(=O)[C@H]([C@@H](C)O)NC(=O)[C@H](CC(C)C)N(C)C(=O)[C@H](Cc2ccc(O)cc2)NC(=O)[C@H](CC(C)C)N(C)C(=O)[C@H](Cc2ccccc2)N(C)C1=O` [Compound F03] ([NMeGABA][NMeL]I[NMeF][NMeL]Y[NMeL]T[NMeL][NMeL]D-Piperidide; lactam N-11), the Papp was found to be 0.13 ×10⁻⁶ cm/s.

In turn, `CC(C)C[C@H]1C(=O)N[C@@H](Cc2ccc(O)cc2)C(=O)N(C)[C@@H](CC(C)C)C(=O)N(C)[C@@H](Cc2ccccc2)C(=O)N[C@@H](COC(C)(C)C)C(=O)N(C)[C@@H](CC(C)C)C(=O)N[C@@H]([C@@H](C)O)C(=O)N(C)[C@@H](CC(C)C)C(=O)N(C)[C@@H](CC(C)C)C(=O)N[C@H](C(=O)N2CCCCC2)CC(=O)N(C)CCCC(=O)N1C` [Compound F04] ([NMeGABA][NMeL]Y[NMeL][NMeF]S(tBu)[NMeL]T[NMeL][NMeL]D-Piperidide; lactam N-11) returned a Papp of 0.13 ×10⁻⁶ cm/s.

The compound `CC[C@H]1C(=O)N[C@@H](CC(C)C)C(=O)N(C)[C@@H](CC(C)C)C(=O)N(C)[C@@H](Cc2ccccc2)C(=O)N[C@@H](Cc2ccc(O)cc2)C(=O)N(C)[C@@H](CC(C)C)C(=O)N(C)[C@@H](CC(C)C)C(=O)N[C@@H]([C@@H](C)O)C(=O)N(C)CC(=O)N(C)[C@@H](CC(C)C)C(=O)N[C@H](C(=O)N2CCCCC2)CC(=O)N1C` [Compound F05] ([NMeAbu]L[NMeL][NMeF]Y[NMeL][NMeL]T[Sar][NMeL]D-Piperidide; lactam N-11) yielded a Papp of 0.38 ×10⁻⁶ cm/s.

Staying with this series, now noted: human, Caco-2, Caco-2 (membrane permeability).
`CC[C@H]1C(=O)N[C@@H](COC(C)(C)C)C(=O)N(C)[C@@H](Cc2ccccc2)C(=O)N(C)[C@@H](CC(C)C)C(=O)N[C@H](C(=O)N2CCCCC2)CC(=O)N[C@H](CC(C)C)C(=O)N(C)[C@@H](Cc2ccccc2)C(=O)N[C@@H](CC(C)C)C(=O)N(C)[C@@H](CC)C(=O)N[C@@H](CCCC(O)C(F)(F)F)C(=O)N(C)CC(=O)N1C` (stereo partly drawn) [Compound D10] ([dL][NMeF]L[NMeAbu][X12][Sar][NMeAbu]S(tBu)[NMeF][NMeL]D-Piperidide; lactam N-11) showed a Papp of 0.81 ×10⁻⁶ cm/s.

Compound `CC[C@H]1C(=O)N(C)[C@@H](Cc2ccccc2)C(=O)N[C@@H](CC(C)C)C(=O)N(C)[C@@H](Cc2ccccc2)C(=O)N(C)[C@@H](C(C)C)C(=O)N[C@@H](CCCC(O)C(F)(F)F)C(=O)N(C)CC(=O)N(C)[C@@H](CC(C)C)C(=O)N[C@H](C(=O)N2CCCCC2)CC(=O)N(C)[C@@H](C)C(=O)N[C@@H](CC(C)C)C(=O)N1C` (stereo partly drawn) [Compound D14] ([NMeA]L[NMeAbu][NMeF]L[NMeF][NMeV][X12][Sar][NMeL]D-Piperidide; lactam N-11) came in with a Papp of 0.9 ×10⁻⁶ cm/s.

Compound `CC[C@H](C)C1C(=O)NC(C(C)C)C(=O)N(C)CC(=O)N(C)[C@@H](CC(C)C)C(=O)N[C@H](C(=O)N2CCCCC2)CC(=O)N(C)[C@@H](C)C(=O)N[C@@H](CCCC(O)C(F)(F)F)C(=O)N(C)[C@@H](CC(C)C)C(=O)N(C)[C@@H](Cc2ccccc2)C(=O)N[C@@H](CC(C)C)C(=O)N(C)[C@@H](Cc2ccccc2)C(=O)N1C` (stereo partly drawn) [Compound D15] ([NMeA][X12][NMeL][NMeF]L[NMeF][NMeξIle][ξV][Sar][NMeL]D-Piperidide; lactam N-11) displayed a Papp of 0.61 ×10⁻⁶ cm/s.

Take `CCCCN1CC(=O)N(C)[C@@H](Cc2ccccc2)C(=O)N(C)[C@@H](CC(C)C)C(=O)N[C@@H](COC(C)(C)C)C(=O)N(C)[C@@H](CC(C)C)C(=O)N[C@H](C(=O)N2CCCCC2)CC(=O)N(C)CC(=O)N(C)[C@@H](Cc2ccccc2)C(=O)N[C@@H](C(C)C)C(=O)N(C)[C@@H](CC)C(=O)N[C@@H](CCCC(O)C(F)(F)F)C1=O` (stereo partly drawn) [Compound D16] ([Sar][NMeF]V[NMeAbu][X12][NBuGly][NMeF][NMeL]S(tBu)[NMeL]D-Piperidide; lactam N-11): the apparent permeability (Papp) was 0.51 ×10⁻⁶ cm/s.

For the compound `CC[C@H](C)[C@@H]1NC(=O)[C@H](CC(C)C)N(C)C(=O)[C@H](CCCC(O)C(F)(F)F)NC(=O)[C@H](Cc2ccccc2)N(C)C(=O)CN(C)C(=O)C[C@@H](C(=O)N2CCCCC2)NC(=O)[C@H](CC(C)C)N(C)C(=O)[C@H](COC(C)(C)C)NC(=O)[C@H](CC(C)C)N(C)C(=O)[C@H](Cc2ccccc2)N(C)C(=O)CN(C)C1=O` (stereo partly drawn) [Compound D17] ([Sar][NMeF][X12][NMeL]I[Sar][NMeF][NMeL]S(tBu)[NMeL]D-Piperidide; lactam N-11), the Papp is 1 ×10⁻⁶ cm/s.
